Data: patent US10851115B2, “Heterocyclic compounds as RSV inhibitors” (Enanta Pharmaceuticals, Inc., priority 2017, dated 2020)

system: Human RSV-A (“Long” strain); experiment: RSV in vitro cytoprotection assay in HEp-2 cells (ATPlite readout); type: cell-based; conditions: human respiratory syncytial virus, 96 h; HEp-2 cells, 4-day incubation, ATPlite; read-out: Human RSV-A (“Long” strain) EC50
Excerpt: RSV is a single stranded negative sense RNA virus that causes respiratory tract infections which can be dangerous to infants, the elderly, and immunosuppressed individuals. Currently there is no vaccine, and therapeutic options are both costly and of limited effectiveness. These approved treatments are Ribavirin, and Palivizumab/Synagis (a monoclonal antibody). RSV has two genotypes, A and B, which differ primarily in the structure of the virus' surface “G” attachment protein. Our current primary screen focusses on RSV-A and uses an in vitro cytoprotection assay where compounds are added in 2-fold dilutions to cells which are then subjected to fully replicative viral particles. Cell viability is measured several days later along with separate measurements of compound cytotoxicity. This report focuses on the results of our most recent screening of compounds.
HEp-2 cells, (originally derived from tumors grown in irradiated-cortisonised weanling rats that had been injected with epidermoid carcinoma tissue from a person's larynx, but later found to be indistinguishable from HeLa cells by PCR DNA analysis), were used for the culturing of genotype A, “Long” strain RSV. Flasks were inoculated with RSV and viral stocks were collected once cytopathic effect (CPE) was greater than 90%. Viral stocks in 25% sucrose media were snap frozen using liquid nitrogen to increase viral stability. Viral stock titers were quantified by tissue culture infectious dose 50% (TCID50) using 8,000 cells per well and 3-fold viral dilutions across a 96-well plate, cultured for 4 days.
Following extensive parameter testing, the final assay is run as follows: HEp-2 cells are seeded into the inner 60 wells of a 96-well plate at 8,000 cells per well in a volume of 50 μL using Growth Media (DMEM without phenol red, 1% L-Glut, 1% Penn/Strep, 1% nonessential amino acids, 10% FBS). 2-Fold serial dilutions of control and test compounds are added to the wells in duplicate in a total volume of 25 μL. Viral stock is then added to the wells in a volume of 25 μL, bringing the total volume of each well to 100 μL. Each 96-well plate has a control column of 6 wells with cells and virus but no compound (negative control, max CPE), a column with cells but no compound or virus (positive control, minimum CPE), and a column with no cells or virus or compound (background plate/reagent control). The control wells with cells but no virus are given an additional 25 uL of growth media containing an equal quantity of sucrose as those wells receiving the viral stock in order to keep consistent in media and volume conditions. The outer wells of the plate are filled with 125 μL of growth media to act as a thermal and evaporative moat around the test wells. Following a 4-day incubation period, the plates are read using ATPlite (50 uL added per well), which quantifies the amount of ATP (a measure of cell health) present in each well. Assay plates are read using the Envision luminometer. In parallel, cytotoxicity is examined on an additional 96-well plate treated in an identical manner, but substituting the 25 μL of viral stock for 25 μL of growth media. […] EC50 ranges are as follows: A<0.01 μM; B 0.01-0.05 μM; C>0.05 μM.

| Compound | EC50 |
| --- | --- |
| O=C(Nc1c(F)cccc1F)c1cc2c(s1)-c1ccncc1N(C(=O)c1ccc(NC(=O)c3cccnc3N3CC4(CCOCC4)C3)cc1)CC2 [Example 1] | > 50 nM |
| O=C(Nc1c(F)cccc1Cl)c1cc2c(s1)-c1ccncc1N(C(=O)c1ccc(NC(=O)c3cccnc3N3CC4(CCOCC4)C3)cc1)CC2 [Example 2] | 10 to 50 nM |
| O=C(Nc1ccc(C(=O)N2CCc3cc(-c4nc5ccccc5[nH]4)sc3-c3ccncc32)cc1)c1cccnc1N1CC2(CCOCC2)C1 [Example 3] | > 50 nM |
| O=C(Nc1c(F)cccc1F)c1cc2c(s1)-c1ncccc1N(C(=O)c1ccc(NC(=O)c3cccnc3N3CC4(CCOCC4)C3)cc1)CC2 [Example 4] | < 10 nM |
| O=C(Nc1c(F)cccc1Cl)c1cc2c(s1)-c1ncccc1N(C(=O)c1ccc(NC(=O)c3cccnc3N3CC4(CCOCC4)C3)cc1)CC2 [Example 5] | < 10 nM |
| O=C(Nc1ccc(C(=O)N2CCc3cc(-c4nc5ccccc5[nH]4)sc3-c3ncccc32)cc1)c1cccnc1N1CC2(CCOCC2)C1 [Example 6] | > 50 nM |
| Cc1cnc(N2CC3(CCOCC3)C2)c(C(=O)Nc2ccc(C(=O)N3CCc4cc(C(=O)N[C@@H]5CCOC5)sc4-c4ncccc43)cc2)c1 [Example 17] | 10 to 50 nM |
| COCC1(NC(=O)c2cc3c(s2)-c2ncccc2N(C(=O)c2ccc(NC(=O)c4cc(C)cnc4N4CC5(CCOCC5)C4)cc2)CC3)CCC1 [Example 25] | < 10 nM |
| Cc1cnc(N2CC3(CCOCC3)C2)c(C(=O)Nc2ccc(C(=O)N3CCc4cc(C(=O)NC5CCOCC5)sc4-c4ncccc43)cc2)c1 [Example 27] | < 10 nM |
| Cc1cnc(N2CC3(CCOCC3)C2)c(C(=O)Nc2ccc(C(=O)N3CCc4cc(C(=O)NC[C@H]5CCCO5)sc4-c4ncccc43)cc2)c1 [Example 28] | < 10 nM |
| Cc1cnc(N2CC3(CCOCC3)C2)c(C(=O)Nc2ccc(C(=O)N3CCc4cc(C(=O)NCC5CCCO5)sc4-c4ncccc43)cc2)c1 (stereo not drawn) [Example 29] | < 10 nM |
| Cc1cnc(N2CC3(CCOCC3)C2)c(C(=O)Nc2ccc(C(=O)N3CCc4cc(-c5nc6ccccc6[nH]5)sc4-c4ncccc43)cc2)c1 [Example 38] | 10 to 50 nM |
| Cc1ccc(C(=O)Nc2ccc(C(=O)N3CCc4cc(C(=O)Nc5c(F)cccc5F)sc4-c4ncccc43)cc2)c(N2CC3(CCOCC3)C2)n1 [Example 39] | < 10 nM |
| Cc1ccc(C(=O)Nc2ccc(C(=O)N3CCc4cc(C(=O)Nc5c(F)cc(F)cc5F)sc4-c4ncccc43)cc2)c(N2CC3(CCOCC3)C2)n1 [Example 40] | < 10 nM |
| Cc1ccc(C(=O)Nc2ccc(C(=O)N3CCc4cc(C(=O)Nc5c(C)cccc5F)sc4-c4ncccc43)cc2)c(N2CC3(CCOCC3)C2)n1 [Example 41] | < 10 nM |
| Cc1ccc(C(=O)Nc2ccc(C(=O)N3CCc4cc(-c5nc6ccccc6[nH]5)sc4-c4ncccc43)cc2)c(N2CC3(CCOCC3)C2)n1 [Example 42] | < 10 nM |
| Cc1ccc(C(=O)Nc2ccc(C(=O)N3CCc4cc(-c5nc6cccc(Cl)c6[nH]5)sc4-c4ncccc43)cc2)c(N2CC3(CCOCC3)C2)n1 [Example 43] | 10 to 50 nM |

Second part, the compound after the results:

| EC50 | Compound |
| --- | --- |
| < 10 nM | Cc1cnc(N2CC3(CCOCC3)C2)c(C(=O)Nc2ccc(C(=O)N3CCc4cc(C(=O)Nc5c(C)cccc5C)sc4-c4ncccc43)cc2)c1 [Example 7] |
| < 10 nM | Cc1cnc(N2CC3(CCOCC3)C2)c(C(=O)Nc2ccc(C(=O)N3CCc4cc(C(=O)Nc5c(C)cccc5C#N)sc4-c4ncccc43)cc2)c1 [Example 8] |
| < 10 nM | Cc1cnc(N2CC3(CCOCC3)C2)c(C(=O)Nc2ccc(C(=O)N3CCc4cc(C(=O)Nc5c(F)cccc5F)sc4-c4ncccc43)cc2)c1 [Example 9] |
| < 10 nM | Cc1cnc(N2CC3(CCOCC3)C2)c(C(=O)Nc2ccc(C(=O)N3CCc4cc(C(=O)Nc5c(F)cc(F)cc5F)sc4-c4ncccc43)cc2)c1 [Example 10] |
| < 10 nM | Cc1cnc(N2CC3(CCOCC3)C2)c(C(=O)Nc2ccc(C(=O)N3CCc4cc(C(=O)Nc5c(C)cccc5F)sc4-c4ncccc43)cc2)c1 [Example 11] |
| < 10 nM | Cc1cnc(N2CC3(CCOCC3)C2)c(C(=O)Nc2ccc(C(=O)N3CCc4cc(C(=O)Nc5c(Cl)cccc5Cl)sc4-c4ncccc43)cc2)c1 [Example 12] |
| 10 to 50 nM | Cc1cnc(N2CC3(CCOCC3)C2)c(C(=O)Nc2ccc(C(=O)N3CCc4cc(C(=O)Nc5ncccn5)sc4-c4ncccc43)cc2)c1 [Example 14] |
| < 10 nM | Cc1cnc(N2CC3(CCOCC3)C2)c(C(=O)Nc2ccc(C(=O)N3CCc4cc(C(=O)Nc5ncccc5F)sc4-c4ncccc43)cc2)c1 [Example 15] |
| < 10 nM | Cc1cnc(N2CC3(CCOCC3)C2)c(C(=O)Nc2ccc(C(=O)N3CCc4cc(C(=O)Nc5ncc(C)s5)sc4-c4ncccc43)cc2)c1 [Example 16] |
| 10 to 50 nM | Cc1cnc(N2CC3(CCOCC3)C2)c(C(=O)Nc2ccc(C(=O)N3CCc4cc(C(=O)N[C@H]5CCOC5)sc4-c4ncccc43)cc2)c1 [Example 18] |
| < 10 nM | Cc1cnc(N2CC3(CCOCC3)C2)c(C(=O)Nc2ccc(C(=O)N3CCc4cc(C(=O)Nc5ccccn5)sc4-c4ncccc43)cc2)c1 [Example 19] |
| < 10 nM | Cc1cnc(N2CC3(CCOCC3)C2)c(C(=O)Nc2ccc(C(=O)N3CCc4cc(C(=O)Nc5cccnc5)sc4-c4ncccc43)cc2)c1 [Example 20] |
| < 10 nM | Cc1cnc(N2CC3(CCOCC3)C2)c(C(=O)Nc2ccc(C(=O)N3CCc4cc(C(=O)Nc5ccncc5)sc4-c4ncccc43)cc2)c1 [Example 21] |
| < 10 nM | Cc1cnc(N2CC3(CCOCC3)C2)c(C(=O)Nc2ccc(C(=O)N3CCc4cc(C(=O)Nc5ncccc5C)sc4-c4ncccc43)cc2)c1 [Example 22] |
| < 10 nM | Cc1cnc(N2CC3(CCOCC3)C2)c(C(=O)Nc2ccc(C(=O)N3CCc4cc(C(=O)Nc5cccc(C)n5)sc4-c4ncccc43)cc2)c1 [Example 23] |
| < 10 nM | Cc1cnc(N2CC3(CCOCC3)C2)c(C(=O)Nc2ccc(C(=O)N3CCc4cc(C(=O)NCc5ccco5)sc4-c4ncccc43)cc2)c1 [Example 24] |
| < 10 nM | Cc1cnc(N2CC3(CCOCC3)C2)c(C(=O)Nc2ccc(C(=O)N3CCc4cc(C(=O)NCc5ccccn5)sc4-c4ncccc43)cc2)c1 [Example 26] |
| 10 to 50 nM | Cc1cnc(N2CC3(CCOCC3)C2)c(C(=O)Nc2ccc(C(=O)N3CCc4cc(C(=O)Nc5ncco5)sc4-c4ncccc43)cc2)c1 [Example 30] |
| < 10 nM | Cc1cnc(N2CC3(CCOCC3)C2)c(C(=O)Nc2ccc(C(=O)N3CCc4cc(C(=O)Nc5cccnn5)sc4-c4ncccc43)cc2)c1 [Example 31] |
| < 10 nM | Cc1cnc(N2CC3(CCOCC3)C2)c(C(=O)Nc2ccc(C(=O)N3CCc4cc(C(=O)Nc5cccnc5C)sc4-c4ncccc43)cc2)c1 [Example 32] |
| < 10 nM | Cc1cnc(N2CC3(CCOCC3)C2)c(C(=O)Nc2ccc(C(=O)N3CCc4cc(C(=O)Nc5cnccc5C)sc4-c4ncccc43)cc2)c1 [Example 33] |
| < 10 nM | Cc1cnc(N2CC3(CCOCC3)C2)c(C(=O)Nc2ccc(C(=O)N3CCc4cc(C(=O)Nc5ccncc5C)sc4-c4ncccc43)cc2)c1 [Example 34] |
| < 10 nM | Cc1cnc(N2CC3(CCOCC3)C2)c(C(=O)Nc2ccc(C(=O)N3CCc4cc(C(=O)Nc5nccs5)sc4-c4ncccc43)cc2)c1 [Example 35] |
| 10 to 50 nM | Cc1cnc(N2CC3(CCOCC3)C2)c(C(=O)Nc2ccc(C(=O)N3CCc4cc(C(=O)NCc5cccnc5)sc4-c4ncccc43)cc2)c1 [Example 36] |
| < 10 nM | Cc1cnc(N2CC3(CCOCC3)C2)c(C(=O)Nc2ccc(C(=O)N3CCc4cc(C(=O)Nc5c(Cl)cncc5Cl)sc4-c4ncccc43)cc2)c1 [Example 37] |
